Reference: paper PMC4164625 (PLoS ONE, 2014)

What was measured:
[1] = target: T1, recombinant human SIRT3 (Homo sapiens, UniProt Q9NTG7); experiment: Fluorometric deacetylation assay, IC50 of NAM and isoNAM for SIRT3; assay type: biochemical; parameters: purchased Creative BioMart; details: 90 minutes incubation, 1 mM NAD^+ at 37°C (Methods b105: 100 µM NAD^+)
T1 sequence (Q9NTG7 1-399): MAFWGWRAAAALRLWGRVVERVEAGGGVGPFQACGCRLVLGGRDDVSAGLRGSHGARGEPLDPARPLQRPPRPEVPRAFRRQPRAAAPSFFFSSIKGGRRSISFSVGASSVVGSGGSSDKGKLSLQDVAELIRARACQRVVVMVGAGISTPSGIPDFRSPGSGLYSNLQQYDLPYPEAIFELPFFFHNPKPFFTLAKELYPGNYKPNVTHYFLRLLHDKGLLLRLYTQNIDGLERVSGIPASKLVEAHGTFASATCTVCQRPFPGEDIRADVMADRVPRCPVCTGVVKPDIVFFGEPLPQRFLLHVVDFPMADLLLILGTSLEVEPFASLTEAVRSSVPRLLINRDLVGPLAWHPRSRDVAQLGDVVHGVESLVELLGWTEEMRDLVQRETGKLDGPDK

[2] = target: T2, recombinant human SIRT1 (Homo sapiens, UniProt Q96EB6); experiment: Fluorometric deacetylation assay, IC50 of NAM and isoNAM for SIRT1
T2 sequence (Q96EB6 1-747): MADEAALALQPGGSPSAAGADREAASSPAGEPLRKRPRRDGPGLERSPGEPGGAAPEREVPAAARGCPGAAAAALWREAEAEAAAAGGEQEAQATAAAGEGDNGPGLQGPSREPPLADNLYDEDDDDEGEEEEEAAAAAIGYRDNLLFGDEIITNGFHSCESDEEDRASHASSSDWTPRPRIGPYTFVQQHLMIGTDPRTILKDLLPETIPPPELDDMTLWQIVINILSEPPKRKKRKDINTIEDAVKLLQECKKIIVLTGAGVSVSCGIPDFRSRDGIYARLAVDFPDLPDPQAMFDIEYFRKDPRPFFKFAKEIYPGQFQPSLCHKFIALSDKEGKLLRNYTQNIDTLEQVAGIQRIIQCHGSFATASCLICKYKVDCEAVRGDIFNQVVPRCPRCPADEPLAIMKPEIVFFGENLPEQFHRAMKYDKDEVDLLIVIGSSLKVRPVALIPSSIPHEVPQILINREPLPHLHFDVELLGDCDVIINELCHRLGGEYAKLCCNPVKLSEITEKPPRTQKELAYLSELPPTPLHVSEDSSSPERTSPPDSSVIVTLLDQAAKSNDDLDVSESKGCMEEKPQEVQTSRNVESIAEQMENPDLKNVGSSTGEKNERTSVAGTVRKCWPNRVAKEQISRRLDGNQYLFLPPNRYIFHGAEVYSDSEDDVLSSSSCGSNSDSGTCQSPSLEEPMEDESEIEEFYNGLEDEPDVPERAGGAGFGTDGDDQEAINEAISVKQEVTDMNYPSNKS

[3] = target: T1, recombinant human SIRT3; experiment: SIRT3 initial-rate inhibition kinetics against NAD+, global nonlinear fitting (Eq. 1 / Eq. 2)
[4] = test system: bacterial Sir2; details: cited from earlier work
[5] = test system: yeast Sir2; details: cited from earlier work
[6] = test system: mouse Sir2; details: cited from earlier work
[7] = test system: SIRT1; details: cited from earlier work
[8] = test system: SIRT2; details: cited from earlier work
[9] = test system: SIRT5; details: cited from earlier work
[10] = target: T2, recombinant human SIRT1; experiment: SIRT1 initial-rate inhibition kinetics against NAD+, global nonlinear fitting (Eq. 1); assay type: biochemical; parameters: purchased Enzo Life Sciences AK 555
Description: We utilized a novel deacetylation activity assay that generates a fluorescent signal upon deacetylation of a peptide substrate.
Data are globally nonlinear fitted to base exchange inhibition model (Eq. 1) and shown as a double-reciprocal plot of 1/v versus 1/[NAD^+]. In (C) and (D), the intersection points of the double reciprocal plots are enlarged for SIRT1 and SIRT3, respectively.

IC50 [1] [mM] | IC50 [2] [mM] | Ki ([3]; K 2(K i), K2 of Eq. 1 for NAM, Ki of Eq. 2 for isoNAM (in brackets), unit inferred, b71 gives isoNAM Ki≈4.6 mM) [mM] | Ki ([3]; Ki, from fitting of Eq. 2, as restated in the Discussion) [mM] | Inhibition mode with respect to NAD^+ ([3]; double reciprocal plot / value of α) | Vmax, model parameter estimate ([3]; global nonlinear fit of initial rates with the named inhibitor (Eq. 1 for NAM, Eq. 2 for isoNAM)) [µM/min] | Michaelis constant, model parameter estimate ([3]; global nonlinear fit of initial rates with the named inhibitor (Eq. 1 for NAM, Eq. 2 for isoNAM), varying NAD^+, saturating peptide, 37°C) [µM] | SMILES | IC50 [4] [µM] | IC50 [5] [µM] | IC50 [6] [µM] | IC50 [7] [µM] | IC50 [8] [µM] | IC50 [9] [mM] | Vmax, model parameter estimate ([10]; global nonlinear fit of initial rates with NAM (Eq. 1)) [µM/min] | Michaelis constant, model parameter estimate ([10]; global nonlinear fit of initial rates with NAM (Eq. 1), varying NAD^+, saturating peptide, 37°C) [µM] | α ([10]; mixed inhibition model, K3≡αK2 (Eq. 1))
13.8 ± 0.5 | 12.2 ± 0.3 | 4.62 | ~4.6 | competitive inhibitor | 0.167 | 1402 | NC(=O)c1ccncc1 [isoNAM, isonicotinamide] | – | – | – | – | – | – | – | – | –
– | – | – | – | – | – | – | NC(=O)c1cccnc1 [NAM, nicotinamide] | 26 | 120 | 160 | 50 | […] | 1.6 | 0.863 | 168.2 | 0.848
